{"source": "patent US20230406859A1", "about": "“METHOTREXATE ANALOGS AND METHODS OF USE” (The United States of America, as represented by the …, priority 2020, published 2023)", "key": {"[1]": {"biological_target": "T1, human DHFR-HiBiT fusion protein (Homo sapiens, UniProt P00374)", "T1 construct": "expressed in transfected cells; host or cells: HBL1 cells retrovirally infected with pBMN-Ires-Lyt-2 carrying DHFR-HiBiT", "T1 sequence (P00374 with tags, fused parts or gaps)": "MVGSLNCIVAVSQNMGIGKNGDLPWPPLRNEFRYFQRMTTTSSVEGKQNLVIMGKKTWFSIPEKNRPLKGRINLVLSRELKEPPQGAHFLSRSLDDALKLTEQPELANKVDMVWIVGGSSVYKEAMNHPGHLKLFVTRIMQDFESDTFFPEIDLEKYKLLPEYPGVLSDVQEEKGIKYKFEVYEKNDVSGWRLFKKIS", "assay": "DHFR-HiBiT assay (high-throughput DHFR abundance) in HBL1 cells", "format": "cell-based", "conditions": "for Dmax: % change in untreated cellular DHFR level (control), negative = degradation, positive = stabilization, HBL1, 24 h, read-out: efficacy (%)", "text": "The human DHFR-HiBiT construct was synthetized (Bio Basic) and cloned into the retroviral vector pBMN-Ires-Lyt-2 (provided by G. Nolan, Stanford University, Stanford, CA) which expresses the coding region of mouse CD8a (Lyt-2) using the restriction sites BamHI/XhoI. All constructs were sequenced to validate authenticity. Infected cells were positively selected based on murine CD8a expression using magnetic beads (Miltenyi Biotech).\nCell culture: Human embryonic kidney HEK293T cells were maintained in DMEM (Gibco) supplemented with 10% fetal bovine serum (Hyclone), 2 mmol/L 1-glutamine, HEPES (Gibco) and 100 U/mL penicillin/streptomycin (Invitrogen). The lymphoma cell line HBL1 were maintained in RPMI (Life Technology) supplemented with 5% fetal bovine serum (Hyclone), 2 mmol/L L-glutamine, HEPES (Gibco) and 100 U/mL penicillin/streptomycin (Invitrogen).\nTransfection and retroviral infections: Transfections were performed using Lipofectamine 2000 (Invitrogen) according to the manufacturer's protocol. For retroviral infections, viruses were produced in HEK293T cells and used to infect HBL1 cell line. […] Supernatants containing the retrovirus were collected and filtered at 48- and 72-hours post-transfection. HBL1 cells were centrifuged and then resuspended with the retroviral supernatant with 8 μg/ml of polybrene. The cells were spin-infected twice on consecutive days at 2,500 rpm, at RT, for 90 minutes.\nLytic HiBiT Detection: Cells were plated in solid white 1536-well tissue culture plates (Greiner), at the concentration of 2000 cells/well. After treatment, an equal volume of Nano-Glo HiBiT Lytic Reagent (Promega) containing the substrate furimazine and Large BiT (LgBiT) was added to the cells according to the manufacturer's protocol. Cells were incubated for 10 min at room temperature, and luminescence was measured using a Perkin Elmer ViewLux microplate imager with 30 seconds of exposure time."}, "[2]": {"system": "HBL1 cell line", "assay": "CellTiter-Glo cell viability (cytotox), HBL1 cell line, 72 hours", "format": "cell-based", "conditions": "HBL1 cell line, CellTiter-Glo; unit inferred", "protocol": "CellTiter-Glo viability assays: Five μL of cells (2500 cells) from the 12-well plate culture were plated into white 1536-well plates (Greiner, Monroe, NC, 789173-F) in 6 replicates. CellTiter-Glo Luminescent Cell Viability Assay (CTG) (Promega, G7572), 2.5 μL/well reagent was added with a BioRAPTR FRD (Beckman Coulter, Sykesville, MD), plates were incubated in the dark at ambient temperature for 10 min, and luminescence measured with a ViewLux 1430 Ultra HTS (Perkin Elmer, Waltham, MA)."}}}
{"smiles": "COC(=O)[C@H](CCC(=O)NCCCCCCCCNc1cccc2c1C(=O)N(C1CCC(=O)NC1=O)C2=O)NC(=O)c1ccc(N(C)Cc2cnc3nc(N)nc(N)c3n2)cc1", "note": "(stereo partly shown) [NCGC00687472]", "values": [{"measurement": "Dmax", "setting": "[1]", "value": 62.9, "unit": "%"}, {"measurement": "IC50", "setting": "[2]", "value": 12.2, "unit": "µM"}]}
{"smiles": "CN(Cc1cnc2nc(N)nc(N)c2n1)c1ccc(C(=O)N[C@@H](CCC(=O)NCCOCCOCCNc2cccc3c2C(=O)N(C2CCC(=O)NC2=O)C3=O)C(=O)O)cc1", "note": "(stereo partly shown) [NCGC00687555]", "values": [{"measurement": "Dmax", "setting": "[1]", "value": 56.9, "unit": "%"}, {"measurement": "IC50", "setting": "[2]", "value": 3.93, "unit": "µM"}]}
{"smiles": "COC(=O)[C@H](CCC(=O)NCCCCCCCCNc1cccc2c1C(=O)N(C1CCC(=O)NC1=O)C2=O)NC(=O)CC[C@H](NC(=O)CC[C@H](NC(=O)c1ccc(N(C)Cc2cnc3nc(N)nc(N)c3n2)cc1)C(=O)O)C(=O)OC", "note": "(stereo partly drawn) [NCGC00687569, N2-(4-(((2,4-diaminopteridin-6-yl)methyl)(methyl)amino)benzoyl)-N5-((2S)-5-(((2S)-5-((8-((2-(2,6-dioxopiperidin-3-yl)-1,3-dioxoisoindolin-4-yl)amino)octyl)amino)-1-methoxy-1,5-dioxopentan-2-yl)amino)-1-methoxy-1,5-dioxopentan-2-yl)-L-glutamine]", "values": [{"measurement": "Dmax", "setting": "[1]", "value": 53.9, "unit": "%"}, {"measurement": "IC50", "setting": "[2]", "value": 21.5, "unit": "µM"}]}
{"smiles": "COC(=O)[C@H](CCC(=O)NCCCCCCCCNc1cccc2c1C(=O)N(C1CCC(=O)NC1=O)C2=O)NC(=O)CC[C@H](NC(=O)c1ccc(N(C)Cc2cnc3nc(N)nc(N)c3n2)cc1)C(=O)O", "note": "(stereo partly shown) [NCGC00687576]", "values": [{"measurement": "Dmax", "setting": "[1]", "value": 62.3, "unit": "%"}, {"measurement": "IC50", "setting": "[2]", "value": 17, "unit": "µM"}]}
{"smiles": "COC(=O)[C@H](CCC(=O)NCCCCCCCCNc1cccc2c1C(=O)N(C1CCC(=O)NC1=O)C2=O)NC(=O)CC[C@H](NC(=O)CC[C@H](NC(=O)CC[C@H](NC(=O)c1ccc(N(C)Cc2cnc3nc(N)nc(N)c3n2)cc1)C(=O)O)C(=O)OC)C(=O)OC", "note": "(stereo partly drawn) [NCGC00687807, (2S,7S,12S,17S)-2-(4-(((2,4-diaminopteridin-6-yl)methyl)(methyl)amino)benzamido)-29-((2-(2,6-dioxopiperidin-3-yl)-1,3-dioxoisoindolin-4-yl)amino)-7,12,17-tris(methoxycarbonyl)-5,10,15,20-tetraoxo-6,11,16,21-tetraazanonacosanoic acid]", "values": [{"measurement": "Dmax", "setting": "[1]", "value": 48.1, "unit": "%"}, {"measurement": "IC50", "setting": "[2]", "value": 20.8, "unit": "µM"}]}
{"smiles": "COC(=O)[C@H](CCC(=O)NCCCCCCCCNc1cccc2c1C(=O)N(C1CCC(=O)NC1=O)C2=O)NC(=O)CC[C@H](NC(=O)CC[C@H](NC(=O)CC[C@H](NC(=O)CC[C@H](NC(=O)c1ccc(N(C)Cc2cnc3nc(N)nc(N)c3n2)cc1)C(=O)O)C(=O)OC)C(=O)OC)C(=O)OC", "note": "(stereo partly drawn) [NCGC00687811, (2S,7S,12S,17S,22S)-2-(4-(((2,4-diaminopteridin-6-yl)methyl)(methyl)amino)benzamido)-34-((2-(2,6-dioxopiperidin-3-yl)-1,3-dioxoisoindolin-4-yl)amino)-7,12,17,22-tetrakis(methoxycarbonyl)-5,10,15,20,25-pentaoxo-6,11,16,21,26-pentaazatetratriacontanoic acid]", "values": [{"measurement": "Dmax", "setting": "[1]", "value": 40.5, "unit": "%"}, {"measurement": "IC50", "setting": "[2]", "value": 22.4, "unit": "µM"}]}
{"smiles": "CN1C(=O)CCC(N2C(=O)c3cccc(NCCCCCCCCNC(=O)CC[C@H](NC(=O)c4ccc(N(C)Cc5cnc6nc(N)nc(N)c6n5)cc4)C(=O)O)c3C2=O)C1=O", "note": "(stereo partly drawn) [NCGC00687847, N2-(4-(((2,4-diaminopteridin-6-yl)methyl)(methyl)amino)benzoyl)-N5-(8-((2-(1-methyl-2,6-dioxopiperidin-3-yl)-1,3-dioxoisoindolin-4-yl)amino)octyl)-L-glutamine]", "values": [{"measurement": "Dmax", "setting": "[1]", "value": -93.2, "unit": "%"}, {"measurement": "DC50", "setting": "[1]; HBL1 cells expressing DHFR-HiBiT, 24 h, degradation or stabilization potency, average of N = 2-5, read-out: Ave EC50", "value": 3, "unit": "µM"}, {"measurement": "IC50", "setting": "[2]", "value": 25.4, "unit": "µM"}]}
{"smiles": "CN(Cc1cnc2nc(N)nc(N)c2n1)c1ccc(C(=O)N[C@@H](CCC(=O)O)C(=O)NCCOCCOCCOCCNC(=O)COc2cccc3c2C(=O)N(C2CCC(=O)NC2=O)C3=O)cc1", "note": "(stereo partly drawn) [NCGC00690069, (17S)-17-(4-(((2,4-diaminopteridin-6-yl)methyl)(methyl)amino)benzamido)-1-((2-(2,6-dioxopiperidin-3-yl)-1,3-dioxoisoindolin-4-yl)oxy)-2,16-dioxo-6,9,12-trioxa-3,15-diazaicosan-20-oic acid]", "values": [{"measurement": "IC50", "setting": "[2]", "value": 35.8, "unit": "µM"}]}
{"smiles": "CN(Cc1cnc2nc(N)nc(N)c2n1)c1ccc(C(=O)NC(CCC(=O)O)C(=O)NCCCCCCCCNc2cccc3c2C(=O)N(C2CCC(=O)NC2=O)C3=O)cc1", "note": "(stereo not shown) [NCGC00690075, 4-(4-(((2,4-diaminopteridin-6-yl)methyl)(methyl)amino)benzamido)-5-((8-((2-(2,6-dioxopiperidin-3-yl)-1,3-dioxoisoindolin-4-yl)amino)octyl)amino)-5-oxopentanoic acid]", "values": [{"measurement": "IC50", "setting": "[2]", "value": 70, "unit": "µM"}]}
{"smiles": "Nc1nc(N)c2nc(CN(CCCCCCNC(=O)CCOCCOCCOCCOCCOc3cccc4c3C(=O)N(C3CCC(=O)NC3=O)C4=O)c3ccc(C(=O)N[C@@H](CCC(=O)O)C(=O)O)cc3)cnc2n1", "note": "(stereo partly shown) [NCGC00690395, (4-(((2,4-diaminopteridin-6-yl)methyl)(1-((2-(2,6-dioxopiperidin-3-yl)-1,3-dioxoisoindolin-4-yl)oxy)-15-oxo-3,6,9,12-tetraoxa-16-azadocosan-22-yl)amino)benzoyl)glutamic acid]", "values": [{"measurement": "Dmax", "setting": "[1]", "value": 32.8, "unit": "%"}, {"measurement": "IC50", "setting": "[2]", "value": 33.4, "unit": "µM"}]}
{"smiles": "Nc1nc(N)c2nc(CN(CCCCCCNC(=O)COc3cccc4c3C(=O)N(C3CCC(=O)NC3=O)C4=O)c3ccc(C(=O)N[C@@H](CCC(=O)O)C(=O)O)cc3)cnc2n1", "note": "(stereo partly shown) [NCGC00690396, (4-(((2,4-diaminopteridin-6-yl)methyl)(6-(2-((2-(2,6-dioxopiperidin-3-yl)-1,3-dioxoisoindolin-4-yl)oxy)acetamido)hexyl)amino)benzoyl)glutamic acid]", "values": [{"measurement": "IC50", "setting": "[2]", "value": 26.6, "unit": "µM"}]}
{"smiles": "Cc1ncsc1-c1ccc(CNC(=O)[C@@H]2C[C@@H](O)CN2C(=O)C(NC(=O)CCOCCOCCC(=O)NCCCCCCN(Cc2cnc3nc(N)nc(N)c3n2)c2ccc(C(=O)N[C@@H](CCC(=O)O)C(=O)O)cc2)C(C)(C)C)cc1", "note": "(stereo partly drawn) [NCGC00690397, (4-(((2,4-diaminopteridin-6-yl)methyl)(3-((2S,4R)-4-hydroxy-2-((4-(4-methylthiazol-5-yl)benzyl)carbamoyl)pyrrolidine-1-carbonyl)-2,2-dimethyl-5,14-dioxo-8,11-dioxa-4,15-diazahenicosan-21-yl)amino)benzoyl)glutamic acid]", "values": [{"measurement": "Dmax", "setting": "[1]", "value": 64.1, "unit": "%"}, {"measurement": "IC50", "setting": "[2]", "value": 28.7, "unit": "µM"}]}
{"smiles": "Cc1ncsc1-c1ccc(CNC(=O)[C@@H]2C[C@@H](O)CN2C(=O)C(NC(=O)CCOCCOCCOCCOCCC(=O)NCCCCCCN(Cc2cnc3nc(N)nc(N)c3n2)c2ccc(C(=O)N[C@@H](CCC(=O)O)C(=O)O)cc2)C(C)(C)C)cc1", "note": "(stereo partly drawn) [NCGC00690398, (4-(((2,4-diaminopteridin-6-yl)methyl)(3-((2S,4R)-4-hydroxy-2-((4-(4-methylthiazol-5-yl)benzyl)carbamoyl)pyrrolidine-1-carbonyl)-2,2-dimethyl-5,20-dioxo-8,11,14,17-tetraoxa-4,21-diazaheptacosan-27-yl)amino)benzoyl)glutamic acid]", "values": [{"measurement": "Dmax", "setting": "[1]", "value": 26, "unit": "%"}, {"measurement": "IC50", "setting": "[2]", "value": 36.7, "unit": "µM"}]}
{"smiles": "CN(Cc1cnc2nc(N)nc(N)c2n1)c1ccc(C(=O)N[C@@H](CCC(=O)O)C(=O)NCCOCCOCCNc2cccc3c2C(=O)N(C2CCC(=O)NC2=O)C3=O)cc1", "note": "(stereo partly drawn) [NCGC00690407, (4S)-4-(4-(((2,4-diaminopteridin-6-yl)methyl)(methyl)amino)benzamido)-5-((2-(2-(2-((2-(2,6-dioxopiperidin-3-yl)-1,3-dioxoisoindolin-4-yl)amino)ethoxy)ethoxy)ethyl)amino)-5-oxopentanoic acid]", "values": [{"measurement": "IC50", "setting": "[2]", "value": 32.9, "unit": "µM"}]}
{"smiles": "CN(Cc1cnc2nc(N)nc(N)c2n1)c1ccc(C(=O)N[C@@H](CCC(=O)O)C(=O)NCCCNc2cccc3c2C(=O)N(C2CCC(=O)NC2=O)C3=O)cc1", "note": "(stereo partly drawn) [NCGC00690412, (4S)-4-(4-(((2,4-diaminopteridin-6-yl)methyl)(methyl)amino)benzamido)-5-((3-((2-(2,6-dioxopiperidin-3-yl)-1,3-dioxoisoindolin-4-yl)amino)propyl)amino)-5-oxopentanoic acid]", "values": [{"measurement": "IC50", "setting": "[2]", "value": 38.6, "unit": "µM"}]}
{"smiles": "COC(=O)[C@H](CCC(=O)NCCOCCOCCOCCNC(=O)COc1cccc2c1C(=O)N(C1CCC(=O)NC1=O)C2=O)NC(=O)c1ccc(N(C)Cc2cnc3nc(N)nc(N)c3n2)cc1", "note": "(stereo partly drawn) [NCGC00842394, Methyl (19S)-19-(4-(((2,4-diaminopteridin-6-yl)methyl)(methyl)amino)benzamido)-1-((2-(2,6-dioxopiperidin-3-yl)-1,3-dioxoisoindolin-4-yl)oxy)-2,16-dioxo-6,9,12-trioxa-3,15-diazaicosan-20-oate]", "values": [{"measurement": "Dmax", "setting": "[1]", "value": 27.6, "unit": "%"}, {"measurement": "IC50", "setting": "[2]", "value": 33.9, "unit": "µM"}]}
